Where two headings read alike, the source gives them in different places. Blank lines part the entries; values can stand above or below the molecule they belong to.
What was measured:
TM287/288 [1] = test: Hoechst 33342 stimulated ATPase activity of TM287/288 reconstituted into proteoliposomes; type: biochemical, Thermotoga maritima; conditions: 50, 100 and 150 µM Hoechst 33342, 50°C, wildtype and spin-labeled mutants, maximal at 50 or 100 µM, bell-shaped
Method: To carry out DEER measurements in a lipidic environment (pair 131^TM288/248^TM288) as well as for the investigation of drug-stimulated ATPase activity of all pairs, spin-labeled TM287/288 was reconstituted into proteoliposomes consisting of E. coli polar lipids and egg phosphatidylcholine mixed at a ratio of 3:1 in 50 mM K-HEPES pH 7.0 as described elsewhere ([Hürlimann et al., 2016]; [Geertsma et al., 2008]). […] Reconstituted TM287/288_E517Q^TM288 was used for background subtraction.

TM287/288 [2] = molecular target: T1, TM287/288 (Thermotoga maritima, UniProt Q9WYC3+Q9WYC4, C28S/C496S/C519S/C558S/C73S); test: Inhibition of ATPase activity of TM287/288 by vanadate and nucleotides; type: biochemical; conditions: for IC50: 500 µM ATP; for Ki: calculated from IC50 and Km
Method: Nucleotide binding and hydrolysis follow a complex mechanism in heterodimeric ABC exporters, due to the existence of a degenerate and a consensus site in the NBDs. […] Using the relation IC50=Ki(1+[S]/Km), Ki values for the respective nucleotides were determined (Table 2). […] It is well established that ATPγS is slowly hydrolyzed by ATPases, as for example the F1Fo-ATPase ([Turina and Capaldi, 1994]). […] It is reasonable to assume that TM287/288 is as well capable of slow ATPγS hydrolysis. In addition, we tested whether TM287/288 hydrolyzes AMP-PNP. In contrast to ATPγS, hydrolysis of AMP-PNP releases Pi, which can be detected by the molybdate/malachite green method.
(§1) in which f corresponds to the ATPase activity at the respective inhibitor concentration divided by the ATPase activity in the absence of inhibitor normalized to 100%, y0 corresponds to the residual activity at infinite inhibitor concentration, a corresponds to the maximal degree of inhibition (a+y0=100%) and x corresponds to the inhibitor concentration.
(§2) Ki values were calculated according to the formula Ki=IC50/(1+[S]/Km)
(§3) IC50 and Km values were obtained from data fitting as outlined above.
(§4) Standard errors for the Ki values were calculated by error propagation: σKi = (Km/Km+[S])^2 σIC502+ ([S]IC50/(Km+[S])^2)^2 σKm2
(§5) in which the σIC50 and σKm are standard errors obtained from data fitting in SigmaPlot and σKi is the standard error for Ki .

ABCB1 = system: ABCB1; parameters: method as in Siarheyeva et al., 2010; conditions: ref Siarheyeva et al., 2010; cited from earlier work
TM287/288 [3] = test: DEER two-Gaussian fit of IF/OF populations, wildtype TM287/288; parameters: species or system Thermotoga maritima; conditions: estimated errors 10%
Method: All nucleotides and nucleotide analogs used in this study were added at saturating conditions well above their Ki values (Table 2). […] Therefore, the IF/OF fractions detected in the sample reflect the average life time that the nucleotide-bound transporter spends in either conformation. To rank the nucleotides in terms of their ability to support the transition to the OF conformation, we used three representative pairs in the wildtype transporter and the E-to-Q mutant: one in the extracellular region (50^TM287/271^TM287), one in the intracellular region (131^TM288/248^TM288) of the TMDs, and one in the NBDs (460^TM287/363^TM288) for which the distance peaks corresponding to the two states were distinguishable. A two-Gaussian fit of the DEER traces was performed to obtain the area of the corresponding IF and OF distance peaks (Figure 5—source data 1). The rank of nucleotides with respect to increasing fractions of the OF populations (Figure 5A) was: ADP-Mg ≈ AMP-PNP-Mg < ATP-EDTA < ATPγS-Mg < ATP-Mg < ATP-Vi-Mg. The order is similar for the wildtype and E-to-Q mutant transporter. However, the OF state is in general more populated in the E-to-Q mutant, which is best explained by an alteration of the energy profile caused by the mutation. This notion is best appreciated for ATP-EDTA and ATP-Mg, which could trigger an almost complete switch in the molecular ensemble of the E-to-Q mutant (Figure 5B).
The labeling efficiency of the double cysteine mutants of the transporters solubilized in detergent was measured at 25°C using an X-band Miniscope 400 EPR spectrometer (Magnettech by Freiberg Instrument). Samples were loaded into glass capillaries with the inner diameter of 0.9 mm and spectra were measured with 14 mT field sweep, 0.15 mT modulation amplitude, 2.5 mW microwave power. The calculated spin labeling efficiencies of the twelve mutants ranged between 70–90% (the second integral of the EPR spectra was calculated with the software available at spintoolbox.com). The high degree of labeling is correlated with the 0.3–0.4 modulation depths of all Q-band DEER traces presented. For DEER measurements, 10% v/v D8- glycerol was added prior to snap freezing. The range of final protein concentrations was 12 to 41 µM. 40 µL of sample were loaded in quartz tubes with 3 mm outer diameter. If not stated differently, samples were incubated at 25°C for 10 min (TM287/288 and MsbA) or 15 min (BmrCD) and snap frozen in liquid nitrogen. To study the effect of high physiological temperatures on the frozen dynamics of the transporter, samples were loaded in the quartz tubes, incubated for 3 min at 80°C on a heat block and snap frozen in a mixture of isopentane and liquid nitrogen to minimize the freezing time. […] The nucleotide analogs AMP-PNP-Mg and ATPγS-Mg (2.5 mM) were also prepared in the presence of 2.5 mM MgCl2. In case of ADP-Mg, 2.5 mM ADP and 2.5 mM MgCl2 were added.
Double electron-electron resonance (DEER) measurements were performed at 50 K on a Bruker ELEXSYS E580Q-AWG (arbitrary wave generator) dedicated pulse Q-band spectrometer equipped with a 150 W TWT amplifier. A 4-pulse DEER sequence with rectangular, non-selective observer and pump pulses of 14 or 16 ns length (depending on the available B1 at the sample) with 100 MHz frequency separation was used ([Polyhach et al., 2012]). Due to the coherent nature of the AWG generated pulses, a four-step phase cycling (0 – π/2 - π – 3/2π) of the pump π pulse was performed to remove unwanted effects of running echoes from the DEER trace. The evaluation of the DEER data was performed using DeerAnalysis2015 ([Jeschke et al., 2006]). The background of the primary DEER traces was corrected using stretched exponential functions with homogeneous dimensions of 1.5 to 3 for different samples. A model-free Tikhonov regularization was used to extract distance distributions from the background corrected form factors. […]

BmrCD = molecular target: T2, BmrCD (Bacillus subtilis, UniProt O07549+O07550, C154A/C256A/C351A); test: Inhibition of ATPase activity of BmrCD by nucleotide analogs; type: biochemical
T2 construct: made in house; host or cells: E. coli MC1061
Method: as §1, §2, §3, §4, §5

TM287/288 [4] = molecular target: T1, TM287/288; test: ATPase activity of detergent-purified wildtype TM287/288 (molybdate/malachite green phosphate detection); type: biochemical
[5] = spin-labeled pair 50^TM287-271^TM287 WT
[6] = spin-labeled pair 131^TM288-248^TM288 WT
[7] = spin-labeled pair 460^TM287-363^TM288 WT
[8] = wildtype TM287/288, ATP-Mg + 2.5 mM EDTA, 50°C, detergent
[9] = TM287/288, 50°C, read-out: IC50
[10] = wildtype TM287/288, ATP-Mg + 1 mM vanadate, 50°C, detergent

T2 sequence (O07550 whole entry): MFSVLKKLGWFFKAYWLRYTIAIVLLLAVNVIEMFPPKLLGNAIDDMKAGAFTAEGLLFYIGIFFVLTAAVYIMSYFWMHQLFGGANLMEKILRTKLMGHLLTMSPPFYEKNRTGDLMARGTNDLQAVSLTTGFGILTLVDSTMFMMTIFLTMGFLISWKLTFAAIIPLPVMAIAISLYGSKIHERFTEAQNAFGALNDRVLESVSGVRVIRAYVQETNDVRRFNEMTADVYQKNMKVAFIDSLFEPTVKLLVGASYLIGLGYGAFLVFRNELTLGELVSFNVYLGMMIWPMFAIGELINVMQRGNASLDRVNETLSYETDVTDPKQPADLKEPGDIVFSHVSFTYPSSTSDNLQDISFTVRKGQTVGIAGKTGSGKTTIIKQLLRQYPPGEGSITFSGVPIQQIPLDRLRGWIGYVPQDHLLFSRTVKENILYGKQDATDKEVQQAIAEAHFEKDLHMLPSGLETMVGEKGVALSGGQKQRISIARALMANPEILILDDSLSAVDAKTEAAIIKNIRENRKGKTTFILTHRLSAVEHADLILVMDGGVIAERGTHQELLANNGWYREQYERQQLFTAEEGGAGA
T2 sequence (O07549 whole entry C154A/C256A/C351A): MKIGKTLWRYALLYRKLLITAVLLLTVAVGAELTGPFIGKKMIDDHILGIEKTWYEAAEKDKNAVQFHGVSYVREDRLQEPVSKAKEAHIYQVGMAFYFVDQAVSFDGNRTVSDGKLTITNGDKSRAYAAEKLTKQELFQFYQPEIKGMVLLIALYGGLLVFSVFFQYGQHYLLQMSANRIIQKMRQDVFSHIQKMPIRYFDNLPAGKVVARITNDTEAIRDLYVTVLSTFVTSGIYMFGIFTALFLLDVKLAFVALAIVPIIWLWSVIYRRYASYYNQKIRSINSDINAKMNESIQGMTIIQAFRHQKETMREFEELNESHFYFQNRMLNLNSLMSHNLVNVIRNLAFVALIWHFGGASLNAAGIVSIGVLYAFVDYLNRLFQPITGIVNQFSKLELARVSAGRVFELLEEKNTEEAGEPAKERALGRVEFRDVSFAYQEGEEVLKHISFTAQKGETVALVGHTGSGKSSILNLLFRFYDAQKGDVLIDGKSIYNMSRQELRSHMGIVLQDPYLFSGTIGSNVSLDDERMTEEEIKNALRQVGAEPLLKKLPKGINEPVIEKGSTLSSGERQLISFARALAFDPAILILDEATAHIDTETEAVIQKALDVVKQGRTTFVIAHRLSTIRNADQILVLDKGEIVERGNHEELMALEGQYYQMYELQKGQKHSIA

stimulation of ATPase activity (TM287/288 [1]): robust ATPase stimulation
Compound: CCOc1ccc(-c2nc3ccc(-c4nc5ccc(N6CCN(C)CC6)cc5[nH]4)cc3[nH]2)cc1 [Hoechst 33342]

Compound: Nc1ncnc2c1ncn2[C@@H]1O[C@H](CO[P@](=O)(O)O[P@](=O)(O)O[P@@](=O)(O)S)[C@@H](O)[C@H]1O [ATPγS]
IC50 (TM287/288 [2]; IC50, TM287/288, 25°C): 31.4 ± 2.8 µM
IC50 (TM287/288 [2]; IC50, TM287/288, 50°C): 2.86 ± 0.08 µM
Ki (TM287/288 [2]; Ki, TM287/288, 25°C): 0.204 ± 0.032 µM
Ki (TM287/288 [2]; Ki, TM287/288, 50°C): 0.0439 ± 0.0062 µM
rate of hydrolysis of ATPγS relative to that determined for ATP (ABCB1): 0.4%
IF frac (TM287/288 [3]; [5]): 45.2%
OF frac (TM287/288 [3]; [5]): 54.8%
IF frac (TM287/288 [3]; [6]): 72.9%
OF frac (TM287/288 [3]; [6]): 27.1%
IF frac (TM287/288 [3]; [7]): 63.7%
OF frac (TM287/288 [3]; [7]): 36.3%
IC50 (BmrCD): 221 ± 24 µM
Ki (BmrCD): 26.7 ± 3.3 µM

Compound: O=C(O)CN(CCN(CC(=O)O)CC(=O)O)CC(=O)O [EDTA]
ATPase activity in the presence of EDTA (TM287/288 [4]; 2.5 mM EDTA added to chelate Mg2+, wildtype TM287/288): did not observe any detectable ATPase activity
ATPase activity (TM287/288 [4]; [8]): <0.1 nmol Pi/min/mg protein
ATPase activity, % of wildtype (TM287/288 [4]; [8]): <0.005%
Turnover per transporter (TM287/288 [4]; [8]): <0.01 min⁻¹

Compound: [Na+].[Na+].[Na+].[O]=[V]([O-])([O-])[O-] [Vanadate, sodium orthovanadate]
residual ATPase activity (TM287/288 [2]; 1 mM vanadate, 50°C, TM287/288): 8%
IC50 (TM287/288 [2]; [9]): 4.9 ± 0.29 µM
Ki (TM287/288 [2]; TM287/288, 50°C, read-out: Ki): 0.0751 ± 0.0114 µM
ATPase activity (TM287/288 [2]; [10]): 165 ± 20 nmol Pi/min/mg protein
ATPase activity, % of wildtype (TM287/288 [2]; [10]): 7.71%
Turnover per transporter (TM287/288 [2]; [10]): 21.9 min⁻¹
turnover rate, ATP hydrolysis inhibited by vanadate (TM287/288 [2]; wildtype TM287/288, vanadate, 50°C): 22 ATP min^−1

Compound: Nc1ncnc2c1ncn2[C@@H]1O[C@H](COP(=O)(O)OP(=O)(O)O)[C@@H](O)[C@H]1O [ADP]
IC50 (TM287/288 [2]; TM287/288, 25°C, read-out: IC50): 505 ± 21 µM
Ki (TM287/288 [2]; TM287/288, 25°C, read-out: Ki): 3.28 ± 0.44 µM
IC50 (TM287/288 [2]; [9]): 681 ± 160 µM
Ki (TM287/288 [2]; TM287/288, 50°C, read-out: Ki): 10.4 ± 2.9 µM
IF frac (TM287/288 [3]; [5]): 90.1%
OF frac (TM287/288 [3]; [5]): 9.9%
IF frac (TM287/288 [3]; [6]): 100%
OF frac (TM287/288 [3]; [6]): 0%
IF frac (TM287/288 [3]; [7]): 82%
OF frac (TM287/288 [3]; [7]): 18%

Source: PMC5216877, “Exploring conformational equilibria of a heterodimeric ABC transporter” (eLife, 2017)
